In US11667629B2, “Isoxazole derivative, preparation method therefor, and use thereof” (SICHUAN KELUN-BIOTECH BIOPHARMACEUTICAL CO., LTD., priority 2017, dated 2023):

What was measured:
FXR [1] = target: T1, FXR (Homo sapiens, UniProt Q96RI1); test: Bile acid receptor FXR coactivator binding assay (LanthaScreen TR-FRET); type: biochemical; settings: for EC50: TR-FRET coactivator assay, four-parameter fit, read-out: EC50 of the compounds on FXR; for Emax: read-out: Relative activation effect
T1 construct: purchased Invitrogen
Description: The Invitrogen⋅LanthaScreen™ TR-FRET Farnesoid X Receptor Coactivator Assay kit was employed to determine the activation effect of the compounds on FXR.
After the receptor was incubated with the test compound at various concentrations at room temperature, the fluorescent-labeled coactivator short peptides and terbium-labeled antibody were added, and the FRET signal was detected after the reaction was complete at room temperature. The group without the receptor protein was employed as a blank, the activation effect (EC50) and maximum activation effect signal value (Emax) of the test compounds on FXR were calculated according to the four-parameter fitting equation: y=E min+(E max−E min)/(1+(x/EC50)^(−Hillslope))

FXR [2] = target: T2, FXR (Homo sapiens, UniProt Q96RI1); test: Luciferase reporter gene assay (HEK293 cotransfected with FXR and human BSEP luciferase reporter); type: cell-based; settings: for EC50: HEK293, 18 hours incubation; for Emax: HEK293, maximum activation effect, relative signal percentage, blank well = 100%
T2 construct: expressed in transfected cells; host or cells: HEK293
T2 sequence (Q96RI1 1-486): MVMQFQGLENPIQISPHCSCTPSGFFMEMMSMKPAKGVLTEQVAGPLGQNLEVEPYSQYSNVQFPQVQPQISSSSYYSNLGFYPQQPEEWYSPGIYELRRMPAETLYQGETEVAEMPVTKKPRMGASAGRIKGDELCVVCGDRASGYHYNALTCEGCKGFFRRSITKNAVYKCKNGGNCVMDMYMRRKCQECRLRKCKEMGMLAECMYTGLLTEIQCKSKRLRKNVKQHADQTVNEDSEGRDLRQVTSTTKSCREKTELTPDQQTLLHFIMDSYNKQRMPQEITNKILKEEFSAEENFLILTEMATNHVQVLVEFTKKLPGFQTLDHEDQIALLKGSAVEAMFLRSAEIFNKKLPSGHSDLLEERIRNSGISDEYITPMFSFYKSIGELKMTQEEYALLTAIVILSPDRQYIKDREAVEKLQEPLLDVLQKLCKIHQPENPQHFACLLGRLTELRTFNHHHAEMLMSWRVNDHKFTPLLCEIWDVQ
Description: Human embryonic kidney cells HEK293 were cultured in a DMEM medium containing 10% FBS. Plasmids were cotransfected to allow the cells to have over expression of FXR and human BSEP luciferase reporter genes. The transfected cells were digested, resuspended, counted, and plated in a multi-well plate. 10 μL of the test compound at various concentrations was added to the multi-well plate to result in final concentrations of 64 μM, 16 μM, 4 μM, 1 μM, 0.25 μM, 0.0625 μM, 0.0156 μM, 0.0039 μM, 0.000975 μM, 0.000244 μM, 0 μM, and the final concentration of DMSO was 0.5%. After the test compound was incubated with the cells for 18 hours, the Brigh-Glo™ detection reagent was added, and the chemical light unit value (RLU) was detected by a multifunctional automatic microplate reader. Taking the signal value of the blank well (without the test compound) as 100%, the relative signal percentage (%) at each concentration of the test compound was calculated. The SigmaPlot 10 software was employed to fit the EC50 and the maximum activation effect Emax (relative signal percentage) of the test compounds using a four-parameter model.

Structure (SMILES) | EC50 (FXR [1]) [µM] | EC50 (FXR [2]) [µM] | Emax (FXR [2]) [%] | Emax (FXR [1]) [%]
O=C(O)c1cccc(-c2csc(N3CCC(OCc4c(-c5c(Cl)cccc5Cl)noc4C4CC4)CC3)n2)c1 [Compound C1, 3-(2-(4-((5-cyclopropyl-3-(2,6-dichlorophenyl)isoxazol-4-yl)methoxy)piperidin-1-yl)thiazol-4-yl)benzoic acid] | 0.178 ± 0.021 | – | – | –
Cn1nc(C(=O)O)cc1-c1ccc(N2CCC(OCc3c(-c4c(Cl)cccc4Cl)noc3C3CC3)CC2)cc1 [Compound C3, 5-(4-(4-((5-cyclopropyl-3-(2,6-dichlorophenyl)isoxazol-4-yl)methoxy)piperidin-1-yl)phenyl)-1-methyl-1H-pyrazole-3-carboxylic acid] | 0.042 ± 0.007 | – | – | –
Cn1nc(C(=O)O)cc1-c1cccc(N2CCC(OCc3c(-c4c(Cl)cccc4Cl)noc3C3CC3)CC2)c1 [Compound C6, 5-(3-(4-((5-cyclopropyl-3-(2,6-dichlorophenyl)isoxazol-4-yl)methoxy)piperidin-1-yl)phenyl)-1-methyl-1H-pyrazole-3-carboxylic acid] | 0.206 ± 0.018 | – | – | –
O=C(O)c1ccc(-c2csc(N3[C@@H]4CC[C@H]3C[C@@H](OCc3c(-c5ccccc5OC(F)(F)F)noc3C3CC3)C4)n2)cc1 [Compound C41, 4-(2-((1R,3r,5S)-3-((5-cyclopropyl-3-(2-(trifluoromethoxy)phenyl)isoxazol-4-yl)methoxy)-8-azabicyclo[3.2.1]octan-8-yl)thiazol-4-yl)benzoic acid] | – | 0.058 ± 0.023 | 252 | –
Cc1cc(C(=O)O)ccc1-c1csc(N2[C@@H]3CC[C@H]2C[C@@H](OCc2c(-c4ccccc4OC(F)(F)F)noc2C2CC2)C3)n1 [Compound C42, 4-(2-((1R,3r,5S)-3-((5-cyclopropyl-3-(2-(trifluoromethoxy)phenyl)isoxazol-4-yl)methoxy)-8-azabicyclo[3.2.1]octan-8-yl)thiazol-4-yl)-3-methylbenzoic acid] | – | 0.033 ± 0.018 | 320 | –
O=C(O)c1ccc(-c2csc(N3[C@@H]4CC[C@H]3C[C@@H](OCc3c(-c5ccccc5OC(F)(F)F)noc3C3CC3)C4)n2)c(F)c1 [Compound C43, 4-(2-((1R,3r,5S)-3-((5-cyclopropyl-3-(2-(trifluoromethoxy)phenyl)isoxazol-4-yl)methoxy)-8-azabicyclo[3.2.1]octan-8-yl)thiazol-4-yl)-3-fluorobenzoic acid] | – | 0.037 ± 0.019 | 343 | –
O=C(O)c1ccc(-c2csc(N3[C@@H]4CC[C@H]3C[C@@H](OCc3c(-c5ccccc5OC(F)(F)F)noc3C3CC3)C4)n2)c(C(F)(F)F)c1 [Compound C45, 4-(2-((1R,3r,5S)-3-((5-cyclopropyl-3-(2-(trifluoromethoxy)phenyl)isoxazol-4-yl)methoxy)-8-azabicyclo[3.2.1]octan-8-yl)thiazol-4-yl)-3-(trifluoromethyl)benzoic acid] | 0.11 ± 0.021 | – | – | 113
O=C(O)c1cc(-c2csc(N3[C@@H]4CC[C@H]3C[C@@H](OCc3c(-c5ccccc5OC(F)(F)F)noc3C3CC3)C4)n2)cs1 [Compound C47, 4-(2-((1R,3r,5S)-3-((5-cyclopropyl-3-(2-(trifluoromethoxy)phenyl)isoxazol-4-yl)methoxy)-8-azabicyclo[3.2.1]octan-8-yl)thiazol-4-yl)thiophene-2-carboxylic acid] | – | 0.019 ± 0.007 | 370 | –
O=C(O)c1csc(-c2csc(N3[C@@H]4CC[C@H]3C[C@@H](OCc3c(-c5ccccc5OC(F)(F)F)noc3C3CC3)C4)n2)c1 [Compound C48, 5-(2-((1R,3r,5S)-3-((5-cyclopropyl-3-(2-(trifluoromethoxy)phenyl)isoxazol-4-yl)methoxy)-8-azabicyclo[3.2.1]octan-8-yl)thiazol-4-yl)thiophene-3-carboxylic acid] | – | 0.039 ± 0.017 | 382 | –
O=C(O)c1ccc(-c2csc(N3[C@@H]4CC[C@H]3C[C@@H](OCc3c(-c5ccccc5OC(F)(F)F)noc3C3CC3)C4)n2)cn1 [Compound C50, 5-(2-((1R,3r,5S)-3-((5-cyclopropyl-3-(2-(trifluoromethoxy)phenyl)isoxazol-4-yl)methoxy)-8-azabicyclo[3.2.1]octan-8-yl)thiazol-4-yl)picolinic acid] | 0.031 ± 0.008 | – | – | 177
